pIC50: −log10 of the molar value.

For this test, the target named is T1, recombinant human AKR1C3 (Homo sapiens, UniProt P42330).
T1 construct: GST (cleaved yes); made in house; host or cells: E. coli
T1 sequence (P42330 1-323): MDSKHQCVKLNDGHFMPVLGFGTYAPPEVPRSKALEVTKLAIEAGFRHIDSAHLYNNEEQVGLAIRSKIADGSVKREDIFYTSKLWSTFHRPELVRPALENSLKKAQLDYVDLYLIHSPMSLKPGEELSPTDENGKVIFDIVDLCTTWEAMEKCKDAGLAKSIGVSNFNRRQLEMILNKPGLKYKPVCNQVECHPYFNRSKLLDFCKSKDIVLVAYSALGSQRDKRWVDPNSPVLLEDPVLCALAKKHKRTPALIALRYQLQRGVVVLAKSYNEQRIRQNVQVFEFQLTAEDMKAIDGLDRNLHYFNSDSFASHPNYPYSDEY
Description: AKR1C3-inhibitory activity assay (Coumberone to Coumberol fluorescence). The conditions noted are these: recombinant human AKR1C3, 10 μM NADPH, 0.3 μM Coumberone, 22° C., typically 90 min. The format is biochemical. The protocol:
AKR1C3-Inhibitory Activity Assay
The AKR1C3-inhibitory activity of the substances of the present invention was measured in the AKR1C3 assay described in the paragraphs below.
Essentially, the enzyme activity is measured by quantification of the generation of Coumberol from Coumberone (Halim et al. J. AM. CHEM. SOC. 2008, 130:14123-14128 and Yee et al. Proc. Natl. Acad. Sci. USA 2006, 103:13304-13309). In this test, the increase of the highly fluorescent Coumberol by NADPH- (nicotinamide adenine dinucleotide phosphate)-dependent reduction of the non-fluorescent Coumberone by AKR1C3 was determined.
The enzyme used was recombinant human AKR1C3 (Aldo-keto reductase family 1 member C3; GenBank Accession No. NM_003739). This was expressed in E. coli as GST (glutathione S transferase) fusion protein and purified by glutathione Sepharose affinity chromatography. The GST was removed by digestion with thrombin and subsequent size exclusion chromatography (Dufort, I., Rheault, P., Huang, X F., Soucy, P., and Luu-The, V., Endocrinology 140, 568-574 (1999)).
For the assay, 50 nI of a 100-fold concentrated solution of the test substance in DMSO were pipetted into a black low-volume 384-well microtiter plate (Greiner Bio-One, Frickenhausen, Germany), 2.5 μl of a solution of AKR1C3 in assay buffer [50 mM potassium phosphate buffer pH 7, 1 mM DTT, 0.0022% (w/v) Pluronic F-127, 0.01% BSA (w/v) and protease inhibitor cocktail (Complete, EDTA-free Protease Inhibitor Cocktail from Roche)] were added and the mixture was incubated for 15 min to allow pre-binding of the substances to the enzyme prior to the enzyme reaction. The enzyme reaction was then started by addition of 2.5 μl of a solution of NADPH (20 μM→final concentration in 5 μl of assay volume is 10 μM) and Coumberone (0.6 μM→final concentration in 5 μl of assay volume is 0.3 μM) in assay buffer, and the resulting mixture was incubated at 22° C. for the reaction time of typically 90 min. The concentration of the AKR1C3 and the reaction time was adapted to the respective activity of the enzyme preparation and adjusted such that the assay was carried out in the linear range. Typical AKR1C3 concentrations were in the region of 1 nM. The reaction was stopped by addition of 2.5 μl of a stop solution consisting of 3 μM EM-1404 as inhibitor (U.S. Pat. No. 6,541,463) in 50 mM HEPES pH7.5 (3 μM EM-1404→final concentration in 7.5 μl of assay volume is 1 μM). The fluorescence of the Coumberole was then measured at 520 nm (excitation at 380 nm) using a suitable measuring instrument (Pherastar from BMG Labtechnologies). The intensity of the fluorescence was used as a measure of the amount of Coumberole formed and thus of the enzyme activity of AKR1C3. The data were normalized (enzyme reaction without inhibitor=0% inhibition; all other assay components, but no enzyme=100% inhibition).
Turning to `Cc1ccc(S(=O)(=O)N2C[C@H](C)N(C(=O)c3cnn[nH]3)C[C@H]2C)cc1` [Example 1, {(2S,5R)-2,5-dimethyl-4-[(4-methylphenyl)sulfonyl]piperazin-1-yl}(1H-1,2,3-triazol-5-yl)methanone], the pIC50 is 8.22. The value for `C[C@@H]1CN(C(=O)c2cnn[nH]2)[C@@H](C)CN1S(=O)(=O)c1ccc(F)cc1F` [Example 2, {(2S,5R)-4-[(2,4-difluorophenyl)sulfonyl]-2,5-dimethylpiperazin-1-yl}(1H-1,2,3-triazol-5-yl)methanone] was 8.52; that for `Cc1ccc(S(=O)(=O)N2C[C@@H](C)N(C(=O)c3c[nH]nn3)[C@@H](C)C2)cc1` [Example 3, {(2R,6S)-2,6-dimethyl-4-[(4-methylphenyl)sulfonyl]piperazin-1-yl}(1H-1,2,3-triazol-4-yl)methanone] was 7.62; that for `C[C@@H]1CN(S(=O)(=O)c2ccc(F)cc2F)C[C@H](C)N1C(=O)c1c[nH]nn1` [Example 4, {(2R,6S)-4-[(2,4-difluorophenyl)sulfonyl]-2,6-dimethylpiperazin-1-yl}(1H-1,2,3-triazol-4-yl)methanone] was 7.92. Consider `C[C@@H]1CN(S(=O)(=O)c2ccc(C(F)(F)F)cc2)C[C@H](C)N1C(=O)c1c[nH]nn1` [Example 5, [(2R,6S)-2,6-dimethyl-4-{[4-(trifluoromethyl)phenyl]sulfonyl}piperazin-1-yl](1H-1,2,3-triazol-4-yl)methanone], for which the pIC50 was 6.97. The value for `Cc1ccc(S(=O)(=O)N2CCN(C(=O)c3cnn[nH]3)CC2(C)C)cc1` [Example 6, {3,3-dimethyl-4-[(4-methylphenyl)sulfonyl]piperazin-1-yl}(1H-1,2,3-triazol-5-yl)methanone] was 8.10; that for `CCc1ccc(S(=O)(=O)N2CCN(C(=O)c3cnn[nH]3)CC2(C)C)cc1` [Example 7, {4-[(4-ethylphenyl)sulfonyl]-3,3-dimethylpiperazin-1-yl}(1H-1,2,3-triazol-5-yl)methanone] was 8.10; that for `CC1(C)CN(C(=O)c2cnn[nH]2)CCN1S(=O)(=O)c1ccc(F)cc1F` [Example 8, {4-[(2,4-difluorophenyl)sulfonyl]-3,3-dimethylpiperazin-1-yl}(1H-1,2,3-triazol-5-yl)methanone] was 7.35. The value for `CC1(C)CN(C(=O)c2cnn[nH]2)CCN1S(=O)(=O)c1ccc(F)cc1Cl` [Example 9, {4-[(2-chloro-4-fluorophenyl)sulfonyl]-3,3-dimethylpiperazin-1-yl}(1H-1,2,3-triazol-5-yl)methanone] was 7.96.

The pIC50 is −log10 of the IC50, conventionally taken in molar units.

Values taken from patent US20200087284A1, “[4-(PHENYLSULFONYL)PIPERAZIN-1-YL](1H-1, 2, 3-TRIAZOL-4-YL)METHANONES” (priority 2016, published 2020).
